Earlier results, collected in patent publication US20020102309A1, “CONTROLLED RELEASE FORMULATION FOR ADMINISTRATION OF AN ANTI-INFLAMMATORY NAPHTHALENE DERIVATIVE” (priority 1999, published 2002).

Test system: patients with osteoarthritis or rheumatoid arthritis

Q: With `COc1ccc2cc(CCC(C)=O)ccc2c1` [nabumetone, 4-(6′-methoxy-2′-naphthyl)butan-2-20 one] as the molecule, how does the “duodenal ulcer, gastric ulcer, and gastrointestinal bleeding, patients taking the drug” value (literature (Pisko et al. 1987 and others)) read?
A: Its value is “less than 1 % of patients”.

Q: What about the “ulcers occurred, treated patients” value (patients with osteoarthritis or rheumatoid arthritis, Dahl 1993) of the same molecule?
A: Its value is 0.03 % of patients.
